# Data published in patent US4153727A, “Pharmaceutical compositions of a prostaglandin compound for rectal use in treating asthma” (priority 1977, dated 1979).
# Key:
# [1] = test system: histamine; test: antiasthmatic effect, aerosol: protection against histamine-induced sneezing; type: in vivo; conditions: aerosol 15 sec; histamine aerosol 0.1%; guinea-pigs
# Experimental: (§1) Guinea-pigs were placed in a chamber and sprayed for 10 sec. with an aerosol of histamine solution (0.1%) and onset of sneezing was recorded. Animals that sneezed within 70-100 sec. were selected as controls. These animals were sprayed for 15 sec. with an aerosol of the test compounds. After 45 sec., the animals were sprayed with histamine and observed for 3 min.
# [2] = test system: histamine; test: antiasthmatic effect, oral: protection against histamine-induced sneezing; type: in vivo; conditions: Cavia porcellus, 0.5 h, 30 min before histamine spray, guinea-pigs
# Experimental: as §1
# Guinea-pigs were sprayed for 10 sec with histamine 30 min after oral administration of the test compounds and observed for 3 min. The percent of amimals protected was determined.
# [3] = test system: bronchoconstriction induced by intravenous injection of histamine; test: effect on air-way resistance (Konzett and Rossler), intraduodenal administration; type: in vivo, guinea-pig; conditions: Cavia porcellus, 0.5 h, 30 min before i.v. histamine 3 μg/kg, anesthetized guinea-pigs, read-out: (B) Effect on air-way resistance ED50
# Experimental: Iii. effect on Air-way Resistance
# The air-way resistance of the guinea-pig lung was determined by the method of Konzett and Rossler (Arch. exp. Path. Pharmak., 195, 71-74(1940)). The bronchodilator activity of prostaglandins were expressed in terms of protective effect against bronchoconstriction induced by intravenous injection of histamine (3 μg/kg). Histamine was injected 30 min after intraduodenal administration of test compound to urethane anesthetized and artificially ventilated guinea-pigs.
# [4] = diarrhea-producing effect, oral; conditions: guinea pig, in vivo, guinea-pigs; for TD50: observed at 2-5 hrs and next morning, read-out: (A) Diarrhea-producing effect (b) ED50; for selectivity ratio: read-out: b/a (diarrhea-producing ED50 / oral antiasthmatic ED50)
# Experimental: Ii. diarrhea-producing Effect
# Test compounds were administered orally to guinea-pigs. The appearance of diarrhea (loose or watery feces) at every 2 hrs, 3 hrs, 4 hrs and 5 hrs period and next morning were noted.
# [5] = test system: hystamine; test: Experiment 1: bronchodilator activity by hystamine spray method, rectal vs oral; type: in vivo, male guinea pigs; conditions: 30 min; for Bronchodilator activity, effective / animals tested: oral (control)
# Experimental: A suppository prepared using the compound of formula I and the oily base or water-soluble base was applied by rectal administration (this invention) to male guinea pigs fasted for 24 hours, each weighing about 550 g. On the other hand, a solution of the compound of formula I in physiological saline solution was applied by oral administration to guinea pigs under the same condition as above for control. After 30 minutes from the administration, the bronchodilator activity of the medicament was determined by a hystamine spray method.
# [6] = test system: respiratory tract contraction induced by hystamine; test: 50% inhibition of respiratory tract contraction induced by hystamine, oral vs intravenous; type: in vivo; conditions: 50% inhibition of hystamine-induced respiratory tract contraction
# [7] = rectal administration: absorption, antitussive effect, diarrhea; type: in vivo
# [8] = stability as inhalant (aerosol); type: physicochemical; conditions: used as an inhalant (aerosol)
# [9] = test system: histamine; conditions: earlier patents; cited from earlier work
# [10] = test system: histamine; conditions: earlier patents; cited from earlier work; remark: listed apart in the source
Structure (SMILES),"Antiasthmatic effect, Aerosol ED50 [1] [µg/mL]",ED50 [2] [mg/kg],TD50 [4] [mg/kg],selectivity ratio [4],antiasthmatic effect by oral administration (in words) [10],further results
CCCCC[C@H](O)/C=C/[C@H]1[C@H](O)CC(=O)[C@@H]1C/C=C\CCCC(=O)O [Prostaglandin E2],0.15,> 0.8,,,,ED50 [3]: > 0.8 mg/kg
"CCCC[C@H](C)[C@H](O)/C=C/[C@H]1[C@H](O)CC(=O)[C@@H]1C/C=C\CCCC(=O)O [16(S)-methyl-PGE2, 11α, 15(S)-dihydroxy-16(S)-methyl-9-oxo-5(cis)-13(trans)prostadienoic acid]",0.009,0.025,0.1,4,,
"COCCCC[C@H](C)[C@H](O)/C=C/[C@H]1[C@H](O)CC(=O)[C@@H]1C/C=C\CCCC(=O)O [compound of formula I, 11α,15(S)-dihydroxy-20-methoxy-16(S)-methyl-9-oxo-5(cis),13(trans)-prostadienoic acid]",,0.71,0.14,20,excellent antiasthmatic effect,"Bronchodilator activity, effective / animals tested ([5]; 3.1 μg/kg): 1/6; Bronchodilator activity, effective / animals tested ([5]; 6.3 μg/kg): 3/6; Bronchodilator activity, effective / animals tested ([5]; 12.5 μg/kg): 4/6; Bronchodilator activity, effective / animals tested ([5]; 25 μg/kg): 4/6; Bronchodilator activity, effective / animals tested ([5]; 50 μg/kg): 5/6; Bronchodilator activity ED50 ([5]; oral administration (control)): 0.007 mg/kg; effective amount (ED50) oral relative to intravenous injection [6]: about 2400 times; absorption through the intestine [7]: unexpectedly absorbed through the intestine; antitussive effect [7]: exhibits an antitussive effect; diarrhea [7]: does not cause diarrhea; stability of the medicament [8]: difficult to maintain the stability; antiasthmatic effect by aerosol administration (in words) [9]: excellent antiasthmatic effect"
"COCCCCC[C@H](O)/C=C/[C@H]1[C@H](O)CC(=O)[C@@H]1C/C=C\CCCC(=O)O [20-methoxy-PGE2, 11α,15(S)-dihydroxy-20-methoxy-9-oxo-5(cis)-13(trans)Prostadienoic acid]",0.15,> 0.8,,,does not show antiasthmatic effect,
"CCCC[C@@H](C)[C@H](O)/C=C/[C@H]1[C@H](O)CC(=O)[C@@H]1C/C=C\CCCC(=O)O [16(R)-methyl-PGE2, 11α,15(S)-dihydroxy-16(R)-methyl-9-oxo-5(cis)-13(trans)prostadienoic acid]",0.011,0.0175,0.025,1.43,,
